Assay results taken from patent US9458456B2, “Methods and compositions for the diagnosis, classification, and treatment of cancer” (UNIVERSITY OF SOUTH ALABAMA, priority 2011, dated 2016).

Columns and labels:
Format in all cases: cell-based
Details in all cases: Homo sapiens
[1] = tested on: C4-2 shMyb Myb-knockdown castration-resistant prostate cancer cells; experiment: Docetaxel cell viability, C4-2shMyb cells
Description: (§1) Castration-resistant prostate cancer cells (C4-2), Myb-knockdown castration-resistant prostate cancer cells (C4-2 shMyb), androgen-dependent prostate cancer cells (LNCap-Neo), Myb-overexpressing androgen-dependent prostate cancer cells (LNCaP-Myb), were treated with increasing concentrations of Docetaxel and the viability tested at 48 hr and 72 hr post-treatment. […] Table 2 summarizes the IC50 values for docetaxel in the various cell lines.

[2] = tested on: C4-2 castration-resistant prostate cancer cells; experiment: Docetaxel cell viability, C4-2 cells
Description: as §1

[3] = tested on: LNCaP-Myb Myb-overexpressing androgen-dependent prostate cancer cells; experiment: Docetaxel cell viability, LNCaP-Myb cells
Description: as §1

[4] = tested on: LNCaP-Neo androgen-dependent prostate cancer cells; experiment: Docetaxel cell viability, LNCaP-Neo cells
Description: as §1

IC50 ([1]; 48 hours): 7 µM
IC50 ([1]; 72 hours): 4.8 µM
IC50 ([2]; C4-2, 48 hours): 18.2 µM
IC50 ([2]; C4-2, 72 hours): 13.1 µM
IC50 ([3]; 48 hours): 20.6 µM
IC50 ([3]; 72 hours): 14.8 µM
IC50 ([4]; 48 hours): 7.6 µM
IC50 ([4]; 72 hours): 4.9 µM
Compound: CC(=O)O[C@@]12CO[C@@H]1C[C@H](O)[C@@]1(C)C(=O)[C@H](O)C3=C(C)[C@@H](OC(=O)[C@H](O)[C@@H](NC(=O)OC(C)(C)C)c4ccccc4)C[C@@](O)([C@@H](OC(=O)c4ccccc4)[C@H]21)C3(C)C [Docetaxel]
